Data reported in patent publication US9328112B2, “Tetracyclic CDK9 kinase inhibitors” (AbbVie Inc., priority 2014, dated 2016).

How the values were obtained:
[1] = biological target: CDK9/Cyclin T1 (Homo sapiens (Human), UniProt P50750); experiment: CDK9 enzyme assay (LANCE ULight TR-FRET kinase assay); assay type: biochemical; conditions: 1000 μM ATP, 100 nM ULight MBP, kinase reaction 1 hour
How it was run: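 TR-FRET readout (ex 320 nm; em 615/665 nm) after 1 h detection with 0.5 nM europium anti-phospho-MBP antibody in 20 mM EDTA stop buffer. Preceding 1 h kinase step: CDK9/Cyclin T1, ULight-MBP substrate at 100 nM, ATP at 1000 μM, compound pre-diluted in DMSO then buffer.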

[2] = tested on: H929 cells; experiment: Cell viability assay (Cell TiterGlo); assay type: cell-based; conditions: Homo sapiens, NCI-H929, 24 hours at 37° C., Cell TiterGlo luminescence
Description: The cell viability assay was performed using H929 cells. Cells were seeded in 96-well plates at 10,000 cells/well and, after overnight incubation, treated with compounds in a dose response of 3-fold dilutions from 10 μM to 0.005 μM ([…], 0.1% final DMSO concentration). After 24 hours at 37° C., cell viability was measured using Cell TiterGlo reagent (Promega) with a luminescence reader.

Chain of CDK9/Cyclin T1 (P50750 whole entry): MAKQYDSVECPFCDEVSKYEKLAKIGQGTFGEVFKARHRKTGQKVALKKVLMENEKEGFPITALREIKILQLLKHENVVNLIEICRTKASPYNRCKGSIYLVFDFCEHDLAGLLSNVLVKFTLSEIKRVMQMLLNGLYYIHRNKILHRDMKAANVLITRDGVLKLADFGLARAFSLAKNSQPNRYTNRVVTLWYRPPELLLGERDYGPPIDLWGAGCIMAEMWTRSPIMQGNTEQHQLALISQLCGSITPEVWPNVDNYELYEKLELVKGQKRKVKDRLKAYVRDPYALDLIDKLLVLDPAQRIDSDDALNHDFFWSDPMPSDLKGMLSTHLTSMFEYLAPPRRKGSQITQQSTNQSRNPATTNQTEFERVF
Chain of CDK9/Cyclin T1 (O60563 whole entry partner): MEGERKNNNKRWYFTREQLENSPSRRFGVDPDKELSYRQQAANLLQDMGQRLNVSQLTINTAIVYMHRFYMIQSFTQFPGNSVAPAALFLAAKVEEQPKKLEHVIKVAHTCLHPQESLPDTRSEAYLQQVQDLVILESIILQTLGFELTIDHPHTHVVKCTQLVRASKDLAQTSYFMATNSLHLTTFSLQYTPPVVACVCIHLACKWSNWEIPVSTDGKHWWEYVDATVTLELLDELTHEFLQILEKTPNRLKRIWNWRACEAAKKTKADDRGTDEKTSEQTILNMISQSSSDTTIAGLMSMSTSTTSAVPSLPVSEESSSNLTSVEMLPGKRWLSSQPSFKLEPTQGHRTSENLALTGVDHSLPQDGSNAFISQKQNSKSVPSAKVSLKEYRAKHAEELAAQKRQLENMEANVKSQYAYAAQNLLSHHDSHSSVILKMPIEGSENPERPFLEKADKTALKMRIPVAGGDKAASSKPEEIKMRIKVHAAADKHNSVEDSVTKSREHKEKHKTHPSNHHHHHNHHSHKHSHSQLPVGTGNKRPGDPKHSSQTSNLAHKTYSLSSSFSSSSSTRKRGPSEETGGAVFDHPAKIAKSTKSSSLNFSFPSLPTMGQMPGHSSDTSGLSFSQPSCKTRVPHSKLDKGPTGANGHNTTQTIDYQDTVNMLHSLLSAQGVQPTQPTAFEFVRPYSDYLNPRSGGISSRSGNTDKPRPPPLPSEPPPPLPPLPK

| Compound | IC50 [1] [nM] | IC50 [2] [nM] |
| --- | --- | --- |
| CN1Cc2c(C3=CCN([C@H]4CC[C@H](C(=O)O)CC4)CC3)[nH]c3nccc(c23)-c2cc(F)c(F)cc21 [Example 150, trans-4-[4-(9,10-difluoro-7-methyl-6,7-dihydro-4H-3,4,7-triazadibenzo[cd,f]azulen-5-yl)-3,6-dihydropyridin-1(2H)-yl]cyclohexanecarboxylic acid] | 57 | 28 |
| CN1Cc2c(C3=C[C@@H]4COC(=O)N4CC3)[nH]c3nccc(c23)-c2cc(F)ccc21 [Example 151, (8aR)-7-(10-fluoro-7-methyl-6,7-dihydro-4H-3,4,7-triazadibenzo[cd,f]azulen-5-yl)-1,5,6,8a-tetrahydro[1,3]oxazolo[3,4-a]pyridin-3-one] | 37 | 190 |
| CN1Cc2c(C3=C[C@H]4COC(=O)N4CC3)[nH]c3nccc(c23)-c2cc(F)ccc21 [Example 152, (8aS)-7-(10-fluoro-7-methyl-6,7-dihydro-4H-3,4,7-triazadibenzo[cd,f]azulen-5-yl)-1,5,6,8a-tetrahydro[1,3]oxazolo[3,4-a]pyridin-3-one] | 41 | 660 |
| CN1Cc2c(C3=CCN4C(=O)OC[C@H]4C3)[nH]c3nccc(c23)-c2cc(F)ccc21 [Example 153, (8aR)-7-(10-fluoro-7-methyl-6,7-dihydro-4H-3,4,7-triazadibenzo[cd,f]azulen-5-yl)-1,5,8,8a-tetrahydro[1,3]oxazolo[3,4-a]pyridin-3-one] | 66 | 600 |
| CN1Cc2c(C3=C[C@H](CO)NCC3)[nH]c3nccc(c23)-c2cc(F)ccc21 [Example 154, [(2R)-4-(10-fluoro-7-methyl-6,7-dihydro-4H-3,4,7-triazadibenzo[cd,f]azulen-5-yl)-1,2,5,6-tetrahydropyridin-2-yl]methanol] | 28 | 56 |
| CN1Cc2c(C3=C[C@@H](CO)NCC3)[nH]c3nccc(c23)-c2cc(F)ccc21 [Example 155, [(2S)-4-(10-fluoro-7-methyl-6,7-dihydro-4H-3,4,7-triazadibenzo[cd,f]azulen-5-yl)-1,2,5,6-tetrahydropyridin-2-yl]methanol] | 41 | 39 |
| CN1Cc2c(C3=CCN[C@@H](CO)C3)[nH]c3nccc(c23)-c2cc(F)ccc21 [Example 156, [(2R)-4-(10-fluoro-7-methyl-6,7-dihydro-4H-3,4,7-triazadibenzo[cd,f]azulen-5-yl)-1,2,3,6-tetrahydropyridin-2-yl]methanol] | 30 | 22 |
| CN(CCO)C(=O)CN1CC=C(c2[nH]c3nccc4c3c2CN(C)c2cc(F)c(F)cc2-4)CC1 [Example 157, 2-[4-(9,10-difluoro-7-methyl-6,7-dihydro-4H-3,4,7-triazadibenzo[cd,f]azulen-5-yl)-3,6-dihydropyridin-1(2H)-yl]-N-(2-hydroxyethyl)-N-methylacetamide] | 46 | 10 |
| CN1Cc2c(C3=CCNCC3)[nH]c3nccc(c23)-c2ccccc21 [Example 158, 7-methyl-5-(1,2,3,6-tetrahydropyridin-4-yl)-6,7-dihydro-4H-3,4,7-triazadibenzo[cd,f]azulene] | 96 | 20 |
| CN1Cc2c(C3=CCNCC3)[nH]c3ncc(F)c(c23)-c2ccccc21 [Example 159, 1-fluoro-7-methyl-5-(1,2,3,6-tetrahydropyridin-4-yl)-6,7-dihydro-4H-3,4,7-triazadibenzo[cd,f]azulene] | 34 | 8 |
| CN1Cc2c(C3=CCN(S(C)(=O)=O)CC3)[nH]c3nccc(c23)-c2ccccc21 [Example 160, 7-methyl-5-[1-(methylsulfonyl)-1,2,3,6-tetrahydropyridin-4-yl]-6,7-dihydro-4H-3,4,7-triazadibenzo[cd,f]azulene] | 85 | 94 |
| CN1Cc2c(C3=CCN(S(C)(=O)=O)CC3)[nH]c3ncc(F)c(c23)-c2ccccc21 [Example 161, 1-fluoro-7-methyl-5-[1-(methylsulfonyl)-1,2,3,6-tetrahydropyridin-4-yl]-6,7-dihydro-4H-3,4,7-triazadibenzo[cd,f]azulene] | 40 | 65 |
| CN(C)C(=O)CN1CC=C(c2[nH]c3nccc4c3c2CN(C)c2ccccc2-4)CC1 [Example 162, N,N-dimethyl-2-[4-(7-methyl-6,7-dihydro-4H-3,4,7-triazadibenzo[cd,f]azulen-5-yl)-3,6-dihydropyridin-1(2H)-yl]acetamide] | 115 | 21 |
| CN(C)C(=O)CN1CC=C(c2[nH]c3ncc(F)c4c3c2CN(C)c2ccccc2-4)CC1 [Example 163, 2-[4-(1-fluoro-7-methyl-6,7-dihydro-4H-3,4,7-triazadibenzo[cd,f]azulen-5-yl)-3,6-dihydropyridin-1(2H)-yl]-N,N-dimethylacetamide] | 56 | 7 |
| OCC(O)CN1CC=C(c2[nH]c3nccc4c3c2COc2ccc(F)cc2-4)CC1 (stereo not shown) [Example 164, 3-[4-(10-fluoro-4,6-dihydro-7-oxa-3,4-diazadibenzo[cd,f]azulen-5-yl)-3,6-dihydropyridin-1(2H)-yl]propane-1,2-diol] | 130 | 270 |
| O=C(O)CC1CCC(N2CC=C(c3[nH]c4nccc5c4c3COc3ccc(F)cc3-5)CC2)CC1 (stereo not shown) [Example 165, {4-[4-(10-fluoro-4,6-dihydro-7-oxa-3,4-diazadibenzo[cd,f]azulen-5-yl)-3,6-dihydropyridin-1(2H)-yl]cyclohexyl}acetic acid] | 390 | 970 |
| CN1Cc2c(C3=CCN([C@H]4CC[C@H](C(=O)O)CC4)CC3)[nH]c3ncc(F)c(c23)-c2cc(F)ccc21 [Example 166, trans-4-[4-(1,10-difluoro-7-methyl-6,7-dihydro-4H-3,4,7-triazadibenzo[cd,f]azulen-5-yl)-3,6-dihydropyridin-1(2H)-yl]cyclohexanecarboxylic acid] | 75 | 8 |
| CN1Cc2c(C3=CCN([C@H]4CC[C@H](CC(=O)O)CC4)CC3)[nH]c3ncc(F)c(c23)-c2cc(F)ccc21 [Example 167, {trans-4-[4-(1,10-difluoro-7-methyl-6,7-dihydro-4H-3,4,7-triazadibenzo[cd,f]azulen-5-yl)-3,6-dihydropyridin-1(2H)-yl]cyclohexyl}acetic acid] | 67 | 10 |
| CC[C@H]1c2c(C3=CCN(CC(=O)N(C)C)CC3)[nH]c3nccc(c23)-c2cc(F)ccc2N1C [Example 168, 2-{4-[(6S)-6-ethyl-10-fluoro-7-methyl-6,7-dihydro-4H-3,4,7-triazadibenzo[cd,f]azulen-5-yl]-3,6-dihydropyridin-1(2H)-yl}-N,N-dimethylacetamide] | 60 | 8 |
| CN1Cc2c(C3=CCN(C4CCC(=CC#N)CC4)CC3)[nH]c3nccc(c23)-c2cc(F)ccc21 (stereo not shown) [Example 173, {4-[4-(10-fluoro-7-methyl-6,7-dihydro-4H-3,4,7-triazadibenzo[cd,f]azulen-5-yl)-3,6-dihydropyridin-1(2H)-yl]cyclohexylidene}acetonitrile] | 45 | 68 |
| COC(=O)C(C)=C1CCC(N2CC=C(c3[nH]c4nccc5c4c3CN(C)c3ccc(F)cc3-5)CC2)CC1 (stereo not shown) [Example 174, methyl 2-{4-[4-(10-fluoro-7-methyl-6,7-dihydro-4H-3,4,7-triazadibenzo[cd,f]azulen-5-yl)-3,6-dihydropyridin-1(2H)-yl]cyclohexylidene}propanoate] | 57 | 120 |
| CN1Cc2c(C3=CCN(C4CCC(=CC(=O)OC(C)(C)C)CC4)CC3)[nH]c3nccc(c23)-c2cc(F)ccc21 (stereo not shown) [Example 175, tert-butyl{4-[4-(10-fluoro-7-methyl-6,7-dihydro-4H-3,4,7-triazadibenzo[cd,f]azulen-5-yl)-3,6-dihydropyridin-1(2H)-yl]cyclohexylidene}acetate] | 120 | 490 |
| CN1Cc2c(C3=CCN(C4CCC(=CC(=O)O)CC4)CC3)[nH]c3nccc(c23)-c2cc(F)ccc21 (stereo not shown) [Example 177, {4-[4-(10-fluoro-7-methyl-6,7-dihydro-4H-3,4,7-triazadibenzo[cd,f]azulen-5-yl)-3,6-dihydropyridin-1(2H)-yl]cyclohexylidene}acetic acid] | 58 | 120 |
| CN1Cc2c(C3=CCN(CCS(=O)(=O)N(C)C)CC3)[nH]c3nccc(c23)-c2cc(F)ccc21 [Example 178, 2-[4-(10-fluoro-7-methyl-6,7-dihydro-4H-3,4,7-triazadibenzo[cd,f]azulen-5-yl)-3,6-dihydropyridin-1(2H)-yl]-N,N-dimethylethanesulfonamide] | 25 | 40 |
| CN1Cc2c(C3=CCN(CCS(N)(=O)=O)CC3)[nH]c3nccc(c23)-c2cc(F)ccc21 [Example 179, 2-[4-(10-fluoro-7-methyl-6,7-dihydro-4H-3,4,7-triazadibenzo[cd,f]azulen-5-yl)-3,6-dihydropyridin-1(2H)-yl]ethanesulfonamide] | 24 | 64 |
| CN1Cc2c(C3=CCN([C@H]4CC[C@H](CC(=O)O)CC4)CC3)[nH]c3ncc(F)c(c23)-c2ccccc21 [Example 180, {trans-4-[4-(1-fluoro-7-methyl-6,7-dihydro-4H-3,4,7-triazadibenzo[cd,f]azulen-5-yl)-3,6-dihydropyridin-1(2H)-yl]cyclohexyl}acetic acid] | 73 | 11 |
